Data set [1] relates to Jurkat cells. The data set is described as follows: growth and survival of Jurkat cells (Countess, Trypan blue). The class given is cell-based. How it is done:
The effects of both inhibitors were tested also on growth of the non-adherent Jurkat cells. Total amount of cells and the number of dead cells was determined by the Countess (Invitrogen, Carlsbad, CA). […].

A further data set relates to Caco-2 cells. The data set is described as follows: cytotoxicity in Caco-2 cells (lactate dehydrogenase (LDH) kit). Type of data set: cell-based. Here is the method:
Lactate generation, growth yield and survival under normal and inhibitory conditions of three different tumorigenic cells lines were determined in more detailed measurements. […] Cytotoxicity was measured by the Lactate dehydrogenase (LDH) kit (Roche).

In data set [2] the test system is Jurkat cells. Briefly: NADH levels in Jurkat cells (NADH/NAD fluorometric assay kit). The following applies: 24 hours after addition, different concentrations. The class given is cell-based, human. How it is done: By inhibiting modified PFK-M enzyme in the cancer cells, glycolytic flux should be decreased and concomitantly NADH levels reduced. To verify that, the amounts of reduced pyridine nucleotide was measured by NADH/NAD fluorometric assay kit (Abcam). The Jurkat cells were seeded into the wells of 96 wells plate at 5×10^5 cells per mL. The untreated cells (control) and the cells with specified amounts of added Inhibitors No. 3 and No. 9 were incubated for 24 hours.

Data set [3] has as its system Jurkat cells. The data set is described as follows: long-term fed-batch cultivation of Jurkat cells (18 days). The following applies: 100 µM.
Data set [4] deals with T1, native human (85 kDa) 6-phosphofructo-1-kinase (PFK-M), nPFK-M (Homo sapiens, UniProt P08237).
T1 sequence (P08237 1-780): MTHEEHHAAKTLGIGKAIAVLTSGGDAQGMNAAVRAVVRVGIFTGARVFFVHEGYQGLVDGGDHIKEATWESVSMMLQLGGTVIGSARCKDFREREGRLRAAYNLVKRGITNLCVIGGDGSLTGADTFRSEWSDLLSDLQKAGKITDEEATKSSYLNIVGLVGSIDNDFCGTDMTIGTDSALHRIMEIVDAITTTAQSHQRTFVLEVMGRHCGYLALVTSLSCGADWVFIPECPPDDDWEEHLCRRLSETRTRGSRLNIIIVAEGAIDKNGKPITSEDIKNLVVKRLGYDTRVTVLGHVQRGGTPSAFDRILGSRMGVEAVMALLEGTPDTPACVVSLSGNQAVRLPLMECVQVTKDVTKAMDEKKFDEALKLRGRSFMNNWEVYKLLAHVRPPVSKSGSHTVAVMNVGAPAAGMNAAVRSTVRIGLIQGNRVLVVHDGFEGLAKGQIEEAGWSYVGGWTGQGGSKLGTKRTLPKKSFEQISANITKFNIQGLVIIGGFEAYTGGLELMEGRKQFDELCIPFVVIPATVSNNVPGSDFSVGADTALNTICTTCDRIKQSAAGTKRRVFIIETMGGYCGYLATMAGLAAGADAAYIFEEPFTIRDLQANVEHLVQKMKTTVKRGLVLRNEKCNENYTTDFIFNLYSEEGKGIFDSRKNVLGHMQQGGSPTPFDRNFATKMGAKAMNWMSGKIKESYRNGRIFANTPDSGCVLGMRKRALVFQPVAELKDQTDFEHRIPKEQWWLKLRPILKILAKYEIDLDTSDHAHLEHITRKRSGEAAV
The data set is described as follows: in vitro inhibition of purified recombinant native PFK-M enzyme. Particulars: inhibitor range 10 - 50 µM, Figure 3.

Data set [5] deals with human embryonic kidney (HEK 293) cells. Briefly: lactate excretion by non-tumorigenic HEK 293 cells. The class given is cell-based. Here is the method: The effect of Inhibitor No. 3 on lactate excretion was tested also on two non-tumorigenic cell lines. First, fast proliferating human embryonic kidney (HEK 293) cells were assessed for lactate formation in the presence of Inhibitor No. 3. RPMI 1640 GlutaMAX medium (Thermo Fisher) supplemented with 10% FBS was used as a growth medium. […] About 95 mg/L of lactate were detected after 72 hours of incubation by untreated cells (control) and by the cells growing in the presence of Inhibitor No. 3 (Figure 9a). Similar results were recorded also by non-tumorigenic MCF-10A cell line isolated form the epithelial cells of the mammary gland. The cells were cultivated in MEBM medium supplemented by additives that were obtained as a MEGM Kit from Lonza/Clonetics Corporation. Characteristically these cells grew slower than HEK 293 cells with correspondingly slower lactate excretion rate. After 96 hours of incubation, only about 27 mg/L of lactate was detected in the medium. Again, no influence of different concentrations of Inhibitor No. 3 on lactate generation could be observed (Figure 9b).

Data set [6] concerns Jurkat cells. Briefly: lactate excretion by Jurkat cells (enzymatic L-lactic acid kit). Type of data set: cell-based, human. How it is done: The cells were incubated in 1 mL volume (24 well plates) at 5% CO2 and 37°C. The inhibitors were added in 100 µM concentration. As a control, equivalent amount of DMSO as used for the addition of inhibitors was supplemented to the medium. The tests started with 1×10^5 cells per mL. Extracellular lactate excreted by the Jurkat cells was measured in the supernatant of the growth medium after the cells were removed by centrifugation at 1500 rpm for 5 minutes. Lactate concentration was determined enzymatically using L-Lactatic acid kit (K-LATE, Megazyme, Ireland).
Measurements of lactate excretion in the tumorigenic Jurkat cells and the cells treated with two selected inhibitors at different concentrations were repeated by more detailed measurements. The growth conditions were identical to those described in Experiment 2. No significant difference in lactate excretion could be observed by the treated and untreated cells during the initial stage of growth that lasted for approximately 12 hours. Later on lactate excretion by the Jurkat cells ceased in the presence of both inhibitors.

Entries after “also recorded” stand apart in the source; their conditions may differ.

Consider `O=C(CSc1nnc(-c2ccc3c(c2)OCO3)o1)Nc1ccon1` [Inhibitor No. 3, 2-[(5-benzo[1,3]dioxol-5-yl-1,3,4-oxadiazol-2-yl)sulfanyl]-N-isoxazol-3-yl-acetamide], for which the dead cells in the data set on Jurkat cells [1] (Jurkat cells stained with Tripan blue) is recorded as 3,21±0,27%. Moreover, the “effect on growth of Jurkat cells (total cell numbers)” value in the data set on Jurkat cells [1] (different concentrations, 72 hours) is on record as “remarkable reduction of growth rate at concentrations higher than 25 µM”. Also, the “average percentages of dead cells, Caco-2, sequential re-insertion” value in the data set on Caco-2 cells (sequential addition at 24-hour intervals, 92 hours, average over medium without and with inhibitor) is 5,38±0,4%. The “average percent of dead cells, Caco-2” value with Caco-2 cells (single addition, average over control and different concentrations of inhibitor) is 3,99±0,08%. Besides, in the data set on Jurkat cells [2], the NADH levels entry is recorded as “steadily decreased in dose dependent manner”. Also, in the data set with Jurkat cells [3] (fed-batch, 18 days), the “viability of the Jurkat cells, long-term” value was “slight decrease of viability”. Moreover, the “duration of slow reduction of lactate generation rate after the addition of inhibitor” value in the data set on Jurkat cells [3] (long term experiment) lay in the range of 24 to 48 h. Also, in data set [4], the “inhibition of the activity of native nPFK-M enzyme” value is “remarkably reduced also the activity of native nPFK-M enzyme”. For the same compound, the “reduction of lactate generation, HEK 293” value in data set [5] (72 hours of growth, different concentrations of inhibitor) is listed as “no significant reduction of lactate generation”. Moreover, the “lactate detected, HEK 293” value in data set [5] (after 72 hours of incubation, same for untreated control) was “About 95 mg/L”. Further, the “time at which lactate production was averted” value in the data set with Jurkat cells [6] (inhibitor concentrations lower than 200 µM) is “about 24 hours”. For the same compound, the “lactate excretion by the Jurkat cells” value in the data set with Jurkat cells [6] (preliminary test, 100 µM inhibitor, followed for 48 hours, versus DMSO control) is reported as “Significantly lowered lactate excretions; also recorded: effectively prevented excretion”.

These data come from patent EP3833345B1, “SMALL MOLECULE-INHIBITORS OF 6-PHOSPHOFRUCTO-1-KINASE FOR REDUCING LACTATE GENERATION BY CANCER CELLS” (Kemijski Institut, priority 2018, dated 2020).
